PMC4642536, “Structural analysis of fungus-derived FAD glucose dehydrogenase” (Scientific Reports, 2015)

Tests used:
[1] = biological target: T1, AfGDH (Aspergillus flavus FAD-dependent glucose dehydrogenase, FADGDH) (Aspergillus flavus, UniProt B8MX95); assay: PMS/DCIP reduction, absorbance at […] nm; FAD reduction spectrum; assay type: biochemical; conditions: 200 mM D-glucose, 0.6 mM PMS, 0.06 mM DCIP, 10 mM potassium phosphate pH 6.5, 25 °C
T1 construct: gene F9C07_464; residues 24-593, secretion signal peptide (1-22) removed; codon-optimised synthetic gene in pET30C, E. coli Origami2 (DE3); nonglycosylated; monomer
T1 sequence (B8MX95 24-593): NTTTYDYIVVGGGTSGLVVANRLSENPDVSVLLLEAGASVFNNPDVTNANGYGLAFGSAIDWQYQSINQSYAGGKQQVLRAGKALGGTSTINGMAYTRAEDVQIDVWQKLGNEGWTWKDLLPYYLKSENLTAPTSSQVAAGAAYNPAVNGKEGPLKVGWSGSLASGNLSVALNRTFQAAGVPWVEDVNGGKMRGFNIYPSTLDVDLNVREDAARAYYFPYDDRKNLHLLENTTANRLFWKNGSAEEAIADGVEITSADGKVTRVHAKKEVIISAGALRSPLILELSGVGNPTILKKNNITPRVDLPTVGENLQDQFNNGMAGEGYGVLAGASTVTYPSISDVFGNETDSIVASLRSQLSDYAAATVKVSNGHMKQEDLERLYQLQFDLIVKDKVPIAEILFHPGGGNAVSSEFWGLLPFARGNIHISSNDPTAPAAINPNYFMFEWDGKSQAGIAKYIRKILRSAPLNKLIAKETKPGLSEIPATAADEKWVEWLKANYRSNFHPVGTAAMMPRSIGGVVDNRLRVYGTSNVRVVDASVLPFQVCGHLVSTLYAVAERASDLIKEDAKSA

[2] = biological target: T1, AfGDH (Aspergillus flavus FAD-dependent glucose dehydrogenase, FADGDH); assay: X-ray crystal structure, […] Å; assay type: binding; conditions: co-purified cofactor, refined as reduced form; pH 6.5; also in 4YNU

Structure (SMILES) | specific activity [1] | X-ray crystal structure, 1.78 Å [2]
OC[C@H]1OC(O)[C@H](O)[C@@H](O)[C@@H]1O (stereo partly drawn) [D-glucose] | The addition of glucose to the wild type enzyme resulted in the disappearance of the peaks | 
Cc1cc2c(cc1C)N(C[C@H](O)[C@H](O)[C@H](O)COP(=O)(O)OP(=O)(O)OC[C@H]1O[C@@H](n3cnc4c(N)ncnc43)[C@H](O)[C@@H]1O)c1[nH]c(=O)[nH]c(=O)c1N2 [reduced FAD] |  | The bound FAD molecule was refined as a reduced FAD cofactor (FADH2)
